In paper PMC5011490, “Effect of Tris, MOPS, and phosphate buffers on the hydrolysis of polyethylene terephthalate films by polyester hydrolases” (FEBS Open Bio, 2016):

Target: T1, TfCut2 (Thermobifida fusca, UniProt Q6A0I4)
T1 construct: gene cut2; gene without signal peptide from T. fusca KW3 genomic DNA, pET-20b(+) with pelB leader and His6 tag, E. coli BL21(DE3), purified
Assay: PET film hydrolysis, released products by RP-HPLC; Lineweaver-Burk slope replot
Type: biochemical
Details: amorphous PET film substrate, 0.2 M sodium phosphate pH 8.0, 60 °C, 1 h; MOPS 0.05-0.075 M; competitive
Excerpt: PET film hydrolysis, released products by RP-HPLC; Lineweaver-Burk slope replot on TfCut2

T1 sequence (Q6A0I4 41-301): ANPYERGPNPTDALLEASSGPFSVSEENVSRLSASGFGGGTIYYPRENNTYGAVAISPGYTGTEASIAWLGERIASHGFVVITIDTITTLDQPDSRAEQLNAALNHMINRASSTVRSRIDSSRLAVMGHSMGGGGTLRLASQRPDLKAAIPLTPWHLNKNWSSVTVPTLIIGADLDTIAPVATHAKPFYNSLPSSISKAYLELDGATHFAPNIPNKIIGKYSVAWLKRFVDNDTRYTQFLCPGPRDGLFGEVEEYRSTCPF

SMILES: O=S(=O)(O)CCCN1CCOCC1 [MOPS, 3‐(N‐morpholino)propanesulfonic acid]
- Ki: 80 mM
